Source: publication PMC3048469 (FEBS letters, 2011)
Like-named read-outs stand apart in the source and are kept apart here.

Target: Rv1086 (Mycobacterium tuberculosis, UniProt P9WFF5)
Assay type: biochemical
Conditions: 5 mM MgCl2, pH 7.0, 37 °C

Rv1086, sequence (P9WFF5 whole entry): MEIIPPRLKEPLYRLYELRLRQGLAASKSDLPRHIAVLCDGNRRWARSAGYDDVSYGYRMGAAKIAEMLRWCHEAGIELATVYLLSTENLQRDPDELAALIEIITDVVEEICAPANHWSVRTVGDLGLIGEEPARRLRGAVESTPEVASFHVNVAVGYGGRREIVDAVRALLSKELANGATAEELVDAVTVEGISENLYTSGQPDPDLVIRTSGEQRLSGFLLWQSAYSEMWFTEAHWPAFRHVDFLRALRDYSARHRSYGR

CC(C)=CCOP(=O)(O)OP(=O)(O)O [DMAPP]
GC-MS of dephosphorylated product (100 μM DMAPP, 100 μM IPP, 0.3% Triton X-100): (Z,E)-FPP also was produced by Rv1086 from IPP and DMAPP in the absence of Rv0989

CC(C)=CCC/C(C)=C/COP(=O)(O)OP(=O)(O)O [GPP]
GC-MS of dephosphorylated product (100 μM GPP, co-substrate IPP): Rv1086 assayed in the presence of authentic GPP, GPP synthesized by Rv0989c, or DMAPP
